Measurements reported in patent US8618054B2, “Interleukin-1 receptor antagonists, compositions, and methods of treatment” (Valorisation-Rechereche Société en Commandite, priority 2004, dated 2013).
Marks after values point to notes of the source that are not given here. Where a SMILES comes first, the peptide text is derived from it. Where no end group is shown, it is not given here. [ ]: non-standard residue; d: D form.

How the values were obtained:
IL-1R/IL-1RacP receptor [1] = molecular target: T1, IL-1R/IL-1RacP receptor (Sus scrofa, UniProt A0A5G2QSI4); test: IL-1-induced PGE2 synthesis in piglet brain microvascular endothelial cells; assay type: cell-based, porcine; details: for inhibition of IL-1-induced PGE2 synthesis, compared with parent API-101: alanine scan peptides 10^−6M, endothelial cells; for Emax: Table 4, read-out: PGE2 synthesis in endothelial cells (porcine) Emax (%)
T1 construct: endogenous in cells; host or cells: piglet brain microvascular endothelial cells
T1 sequence (A0A5G2QSI4 21-572): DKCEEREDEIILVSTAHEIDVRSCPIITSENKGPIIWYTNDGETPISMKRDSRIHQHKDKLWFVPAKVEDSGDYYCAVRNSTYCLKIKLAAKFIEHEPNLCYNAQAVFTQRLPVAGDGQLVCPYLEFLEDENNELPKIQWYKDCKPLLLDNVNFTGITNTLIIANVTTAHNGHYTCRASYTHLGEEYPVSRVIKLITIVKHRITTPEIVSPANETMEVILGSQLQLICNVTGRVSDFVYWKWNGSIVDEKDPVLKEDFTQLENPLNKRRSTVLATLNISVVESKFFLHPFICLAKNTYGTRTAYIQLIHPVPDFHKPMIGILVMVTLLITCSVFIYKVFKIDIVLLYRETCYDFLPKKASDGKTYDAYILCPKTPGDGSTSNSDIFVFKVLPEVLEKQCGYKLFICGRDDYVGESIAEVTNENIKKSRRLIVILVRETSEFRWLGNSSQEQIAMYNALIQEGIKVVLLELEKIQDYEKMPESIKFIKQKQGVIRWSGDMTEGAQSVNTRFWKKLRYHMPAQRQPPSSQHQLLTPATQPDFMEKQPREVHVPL
Protocol: (§1) It is well known in the art that IL-1 induces the synthesis of prostaglandin E2 (PGE2) in endothelial cells and/or chondrocytes in vitro. Therefore, human chondrocytes and piglet brain microvascular endothelial cells were pre-incubated 45-60 minutes at 37° C. with peptide API-101 (^10−6M) and human IL-1 (10 ng/ml) was added in the growing medium. After 24 hours of incubation, growth medium was collected and evaporated. PGE2 measurement was determined by RIA assay with a commercial kit (Cederlane).

IL-1R/IL-1RacP receptor [2] = molecular target: T2, IL-1R/IL-1RacP receptor (Homo sapiens, UniProt P14778); test: IL-1-induced PGE2 synthesis in human chondrocytes; assay type: cell-based; design: endogenous in cells; details: alanine scan peptides 10^−6M
T2 sequence (P14778 18-569): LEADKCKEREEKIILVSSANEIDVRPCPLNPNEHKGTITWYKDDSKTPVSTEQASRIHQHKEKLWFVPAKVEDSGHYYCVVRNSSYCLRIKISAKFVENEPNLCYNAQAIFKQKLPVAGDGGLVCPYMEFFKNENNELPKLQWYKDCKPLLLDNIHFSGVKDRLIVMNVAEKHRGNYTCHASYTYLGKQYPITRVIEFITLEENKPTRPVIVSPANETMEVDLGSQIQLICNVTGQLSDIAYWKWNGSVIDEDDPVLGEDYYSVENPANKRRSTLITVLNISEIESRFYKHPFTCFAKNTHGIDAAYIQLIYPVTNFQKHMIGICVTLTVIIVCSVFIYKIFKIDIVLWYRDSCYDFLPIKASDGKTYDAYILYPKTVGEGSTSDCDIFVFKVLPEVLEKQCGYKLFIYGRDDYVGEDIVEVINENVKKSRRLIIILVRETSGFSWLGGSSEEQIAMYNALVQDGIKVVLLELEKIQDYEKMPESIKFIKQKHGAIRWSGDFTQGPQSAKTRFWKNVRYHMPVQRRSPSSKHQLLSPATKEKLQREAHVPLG
Protocol: as §1

[3] = TNBS-induced inflammatory bowel disease rat model, Example 6 (48 h; MPO, macroscopic, histologic); assay type: in vivo; design: macroscopic evaluation (median score): scale not given here
Protocol: Colon inflammation was induced by intra-rectal/colon administration of the hapten trinitrobenzene sulphonic acid (TNBS) on male Sprague-Dawley rats (175-200 g) (Bouma, Nature Rev, 2003; Morris, Gastroenterology, 1989). Animals were anesthetized with isoflurane and TNBS dissolved in 50% ethanol (vol/vol). 120 mg/ml (TNBS) was administered into the colon (total volume of 0.25 ml per rat) using a polyethylene tube (PE50). The cannula was inserted at 8 cm from the anus and kept in place for at least 15 min after TNBS administration in order to prevent expulsion of the solution. […] A third group (control) was not injected with TNBS. Six days after administration of TNBS, rats were killed by CO2 inhalation. Day 6 was chosen as an endpoint because by day 7 spontaneous tissue regeneration begins and this can mask the therapeutic effect of the tested peptide or peptide derivative. Colon was removed and examined macroscopically (adhesions, ulcerations, discoloration and bleeding) and histologically (neutrophil infiltration, epithelial injury, crypt distortion and ulcerations) (Anthony et al. 1995; Padol et al. 2000; Dieleman, L A, et al. 1997; Torres M I et al. 1999). Two animals per group were studied.
Colon inflammation was induced by intra-rectal/colon administration of the hapten trinitrobenzene sulphonic acid (TNBS) as described in Example 4. Two hours prior to TNBS administration, peptides, peptidomimetics or 0.9% saline were administered intravenously (iv) via the caudal vein (various concentrations of mg/kg/d) (total volume of 0.3 ml). […] A third group (control) was not injected with TNBS. […] Also, these IL-1R antagonists were given twice a day (BID); Remicade® (anti-TNFα) (10 mg/kg) and dexamethasone (0.75 mg/kg) were administered intraperitoneally but only once a day (qd). The intrarectal administration (ir) of 101.10, 101.113 (1 and 2.5 mg/kg), and 5-ASA (50 mg/kg) was done one hour after TNBS administration, and twice a day, except for 5-ASA which is once a day. Finally, 101.10 (1-5 mg/kg) was also administered orally by gavage (po), twice a day. Forty-eight hours after administration of TNBS, rats were killed by CO2 inhalation. Colon was removed and assessed macroscopically (adhesions, ulcerations, discoloration and bleeding) and histologically (neutrophil infiltration, epithelial injury, crypt distortion and ulcerations). One to seven animals per group were studied, according to treatments. Myeloperoxidase (MPO) activity was measured on tissue lysates.

IL-1R/IL-1RacP receptor [4] = molecular target: T2, IL-1R/IL-1RacP receptor; test: IL-1β-induced proliferation in TF-1 cells; assay type: cell-based; design: endogenous in cells; host or cells: TF-1 cells
[5] = Continuous infusion (ip), 8.0 mg/kg/d
[6] = Table 5, derivatives of 101.113
[7] = Table 4: TF-1 proliferation and PGE2 synthesis in endothelial cells, derivatives of 101.107
[8] = Intrarectal administration, 50.0-qd mg/kg/d
[9] = Intermittent injection (ip), 10.0-qd mg/kg/d

Molecule: APRYTAELA [API-101.5]
- inhibition of IL-1-induced PGE2 synthesis, compared with parent API-101 (IL-1R/IL-1RacP receptor [1]): lost almost all activity
- inhibition of IL-1-induced PGE2 synthesis, compared with parent API-101 (IL-1R/IL-1RacP receptor [2]): lost almost all activity

Molecule: Kineret: natural soluble receptor IL-1Ra mimetic, Anakinra, developed by Amgen [reference compound]
- MPO (% of TNBS + Saline) [3, 5]: 63 % of TNBS + Saline
- histologic evaluation (median score) [3, 5]: 2 (Small ulcer (<5 crypts))

Molecule: CC(C)C[C@@H](NC(=O)[C@@H](CCC(=O)O)NC(=O)[C@H]1CCCN1C(=O)[C@H](NC(=O)[C@@H](Cc1ccc(O)cc1)NC(=O)[C@H](N)CCCNC(N)=O)[C@H](C)O)C(N)=O [API-101.134, XYTPEL (X = Citrulline)]
- activity of the peptide, in words (IL-1R/IL-1RacP receptor [4]; [6]): little or no activity

Molecule: C[C@@H]1C[C@H]2[C@@H]3CCC4=CC(=O)C=C[C@]4(C)[C@@]3(F)[C@@H](O)C[C@]2(C)[C@@]1(O)C(=O)CO [Dexamethasone, dexamethasone, reference compound]
- MPO (% of TNBS + Saline) ([3]; Intermittent injection (ip), 0.75-qd mg/kg/d): 60 % of TNBS + Saline

Molecule: CC(C)C[C@@H](NC(=O)[C@@H](CC(=O)O)NC(=O)[C@H]1CCCN1C(=O)[C@H](NC(=O)[C@@H](Cc1ccc(O)cc1)NC(=O)[C@H](N)CCCNC(=N)N)[C@H](C)O)C(=O)N[C@H](C)C(N)=O [API-101.117, RYTPDLA] (HELM PEPTIDE1{[dR].[dY].[dT].[dP].[dD].[dL].[dA].[am]}$$$$V2.0; N-terminus and C-terminus assumed)
- Emax (IL-1R/IL-1RacP receptor [1]): 100%

Molecule: CC(C)C[C@@H](NC(=O)[C@@H](CCC(=O)O)NC(=O)[C@H]1CCCN1C(=O)[C@H](NC(=O)[C@@H](Cc1ccc(O)cc1)NC(=O)[C@H](N)CCCN)[C@H](C)O)C(=O)N[C@H](C)C(N)=O [API-101.115, XYTPELA (X = Ornithine)] (HELM PEPTIDE1{[NCCC[C@@H](N)C(=O)[*:2]].[dY].[dT].[dP].[dE].[dL].[dA].[am]}$$$$V2.0; N-terminus and C-terminus assumed)
- activity of the peptide, in words (IL-1R/IL-1RacP receptor [4]; [7]): maintains its activity

Molecule: APRYTVEAA [API-101.7]
- inhibition of IL-1-induced PGE2 synthesis, compared with parent API-101 (IL-1R/IL-1RacP receptor [1]): lost almost all activity
- inhibition of IL-1-induced PGE2 synthesis, compared with parent API-101 (IL-1R/IL-1RacP receptor [2]): lost almost all activity

Molecule: XRYTPELA (X = Acetyl) (Ac-[dR][dY][dT][dP][dE][dL][dA]) [API-101.121]
- activity of the peptide, in words (IL-1R/IL-1RacP receptor [4]; [7]): completely lost

Molecule: RFVPELA [API-101.127]
- activity of the peptide, in words (IL-1R/IL-1RacP receptor [4]; [6]): completely abolished the activity

Molecule: Nc1ccc(O)c(C(=O)O)c1 [5-ASA, reference compound]
- MPO (% of TNBS + Saline) [3, 8]: 49 % of TNBS + Saline
- histologic evaluation (median score) [3, 8]: 3.3
- macroscopic evaluation (median score) [3, 8]: 1.5

Molecule: CC(C)C[C@@H](NC(=O)[C@@H](CCC(=O)O)NC(=O)[C@H]1CCCN1C(=O)[C@H](NC(=O)[C@@H](Cc1ccc(O)cc1)NC(=O)[C@H](N)CCCCN)[C@H](C)O)C(=O)N[C@H](C)C(N)=O [API-101.114, KYTPELA] (HELM PEPTIDE1{[dK].[dY].[dT].[dP].[dE].[dL].[dA].[am]}$$$$V2.0; N-terminus and C-terminus assumed)
- Emax (IL-1R/IL-1RacP receptor [1]): 50%
- activity of the peptide, in words (IL-1R/IL-1RacP receptor [4]; [7]): maintains its activity

Molecule: CC(C)C[C@@H](NC(=O)[C@@H](CCC(=O)O)NC(=O)[C@H]1CCCN1C(=O)[C@H](NC(=O)[C@@H](Cc1ccc(O)cc1)NC(=O)[C@@H](N)CCCNC(=N)N)[C@H](C)O)C(N)=O [API-101.135, *RYTPEL]
- activity of the peptide, in words (IL-1R/IL-1RacP receptor [4]; [6]): lowered but not lost completely

Molecule: Remicade: anti-TNFα [reference compound]
- MPO (% of TNBS + Saline) [3, 9]: 88 ± 41 % of TNBS + Saline
- histologic evaluation (median score) [3, 9]: 2.5 (1-3.75)**
- macroscopic evaluation (median score) [3, 9]: 0.5

Molecule: CC(C)C[C@@H](NC(=O)[C@@H](CCC(=O)O)NC(=O)[C@H]1CCCN1C(=O)[C@H](NC(=O)[C@@H](Cc1c[nH]c2ccccc12)NC(=O)[C@H](N)CCCNC(=N)N)[C@H](C)O)C(=O)N[C@H](C)C(N)=O [API-101.116, RWTPELA] (HELM PEPTIDE1{[dR].[dW].[dT].[dP].[dE].[dL].[dA].[am]}$$$$V2.0; N-terminus and C-terminus assumed)
- Emax (IL-1R/IL-1RacP receptor [1]): 45%

Molecule: CC(C)C[C@@H](NC(=O)[C@@H](CCC(=O)O)NC(=O)[C@H]1CCCN1C(=O)[C@H](NC(=O)[C@@H](Cc1ccccc1)NC(=O)[C@H](N)CCCNC(=N)N)[C@H](C)O)C(N)=O [API-101.132, RFTPEL] (HELM PEPTIDE1{[dR].[dF].[dT].[dP].[dE].[dL].[am]}$$$$V2.0; N-terminus and C-terminus assumed)
- activity of the peptide, in words (IL-1R/IL-1RacP receptor [4]; [6]): relatively decreased

Molecule: CC(C)C[C@@H](NC(=O)[C@@H](CCC(=O)O)NC(=O)[C@H]1CCCN1C(=O)[C@H](NC(=O)[C@@H](Cc1c[nH]c2ccccc12)NC(=O)[C@H](N)CCCNC(=N)N)[C@H](C)O)C(N)=O [API-101.128, RWTPEL]
- Emax (IL-1R/IL-1RacP receptor [4]; TF-1, Table 5): 100%
- activity of the peptide, in words (IL-1R/IL-1RacP receptor [4]; [6]): relatively decreased

Molecule: KYTPEL ([dK][dY][dT][dP][dE][dL]) [API-101.133]
- activity of the peptide, in words (IL-1R/IL-1RacP receptor [4]; [6]): little or no activity

Molecule: XYTPEL (X = Ornithine) [API-101.126]
- activity of the peptide, in words (IL-1R/IL-1RacP receptor [4]; [6]): little or no activity
